Source: US20170226139A1, “CRYSTALLINE SALTS OF (Z)-O-OCTADEC-9-EN-1-YL O,O-DIHYDROGEN PHOSPHOROTHIOATE” (priority 2013, published 2017)
pIC50: −log10 of the molar value. Marks after values point to notes of the source that are not given here.

Assays:
[1] = target: T1, cloned hERG Potassium Channels expressed in human embryonic kidney cells (Homo sapiens, UniProt Q12809); assay: hERG assay; type: cell-based
T1 construct: expressed in transfected cells; host or cells: human embryonic kidney cells

[2] = test system: C57BL/6 murine Animal Model of GI-ARS; assay: Survival after partial body irradiation (tibial sparing), murine Animal Model of GI-ARS (Studies 4.1.4, 4.1.5, 4.1.8); type: in vivo, C57BL/6 mice; settings: for Survival Day 10, Rx100 arm (survivors/animals) / Survival Day ≧30, Rx100 arm (survivors/animals) / Survival Advantage Day 10 / Survival Advantage Day ≧30: Murine (♀), start +24; for Survival Advantage Day 10 / Survival Advantage Day ≧30 / Survival advantage 0.3 mg/kg / Survival advantage 3 mg/kg / Survival advantage: vs vehicle; for Survival, 0.3 mg/kg / Survival, 3 mg/kg / Survival advantage 0.3 mg/kg / Survival advantage 3 mg/kg: Study 4.1.4, Phase 2 + 3; for Survival, 0.3 mg/kg / Survival, 3 mg/kg: q12 h × 6 from 24 h after PBI; for Survival advantage / Survival, Rx100 at 3 mg/kg/12 × 6: Study 4.1.8, Phase 1 + 2, female C57BL/6; for Survival advantage: 3 mg/kg/12 h × 6
Experimental: These Animal Model studies were all conducted using partial body irradiation (PBI) with tibial bone marrow sparing except the earliest study which was performed with Total Abdominal Irradiation (TAI). The male Rhesus macaque model was developed by MacVittie. The female inbred murine PBI GI-ARS Animal Model was developed by the inventors. […] Differences in radiation sensitivity by gender in rodent species are well appreciated. We are not aware of PBI GI-ARS models other than these that meet criteria required to conduct a prospective, blinded, controlled, randomized study of efficacy.
A synopsis from each of the completed three sequential efficacy studies in the C57BL/6 murine partial body irradiation model of GI-ARS is provided below. […] Study WBS 4.1.8 was a pilot study of the efficacy of Rx100 at the preferred dose and regimen. The latter two studies (4.1.5) and 4.1.8) were blinded, randomized and controlled. The former study was not blinded but was controlled and randomized (WBS 4.1.4).
Study was initiated on Feb. […] Experiments were started on Feb.
Phase 1 (n=32 per group per sex) was designed as an expanded pilot dose-ranging study (0.3, 1.0, 3.0, and 10 mg/kg) to select two Rx100 doses for additional testing in phases 2 and 3. Phases 2 and 3 (enrolled n=64 per group per gender) were conducted at the selected Rx100 doses (0.3 and 3.0 mg/kg) to ensure sufficient sample size to power an assessment of survival advantage. The latter study was conducted in two phases based on facility limitations (up to 120 animals can be handled readily in one radiation sequence). […] A higher radiation dose was used in Phases 2 and 3 and two intermediate doses selected empirically (0.3 and 3.0 mg/kg). The study was carried out to 30 days post irradiation in all phases. The primary endpoint in this study was survival at Day 10. The modified intent-to-treat primary study population was defined as those animals that survived anesthesia following irradiation. Survival advantage was calculated as the percent survival in the active arm minus the percent survival in the vehicle arm for males and females separately with pairwise comparison by Chi-Square as a test of significance without adjustment for multiple testing. Significance was declared at the 0.05 level (two-sided). […] See Kaplan-Meier FIG. 32.
The study was initiated on Apr. […] Experiments were started on Apr.
Under the study design, four radiation doses were selected for vehicle administration. […] The study was performed in female mice only. […] Animals were randomized but stratified by weight to assure equivalent weights in each arm. The study was conducted in two phases to assure adequate subject numbers based on limitations on the number of animals that can be processed per phase (120). The primary endpoint in this study was survival at Day 10 but the study was carried out to Day 30.

[3] = Rx Bio 415, 3 mg/kg (q12 × 6), 15.62-64 Gy
[4] = RxBio 414, 0.3 mg/kg (q12 × 6), 15.65-8 Gy
[5] = RxBio 414, 3 mg/kg (q12 × 6), 15.65-8 Gy
[6] = RxBio 418F, 3 mg/kg (q12 × 6), 15.55-67 Gy (pooled)
[7] = RxBio 418F, 3 mg/kg (q12 × 6), 15.55 Gy
[8] = RxBio 418F, 3 mg/kg (q12 × 6), 15.62 Gy
[9] = RxBio 418F, 3 mg/kg (q12 × 6), 15.67 Gy
[10] = Study 4.1.5, female, 3 mg/kg q12 h×6 starting 24 hours after PBI

T1 sequence (Q12809 whole entry): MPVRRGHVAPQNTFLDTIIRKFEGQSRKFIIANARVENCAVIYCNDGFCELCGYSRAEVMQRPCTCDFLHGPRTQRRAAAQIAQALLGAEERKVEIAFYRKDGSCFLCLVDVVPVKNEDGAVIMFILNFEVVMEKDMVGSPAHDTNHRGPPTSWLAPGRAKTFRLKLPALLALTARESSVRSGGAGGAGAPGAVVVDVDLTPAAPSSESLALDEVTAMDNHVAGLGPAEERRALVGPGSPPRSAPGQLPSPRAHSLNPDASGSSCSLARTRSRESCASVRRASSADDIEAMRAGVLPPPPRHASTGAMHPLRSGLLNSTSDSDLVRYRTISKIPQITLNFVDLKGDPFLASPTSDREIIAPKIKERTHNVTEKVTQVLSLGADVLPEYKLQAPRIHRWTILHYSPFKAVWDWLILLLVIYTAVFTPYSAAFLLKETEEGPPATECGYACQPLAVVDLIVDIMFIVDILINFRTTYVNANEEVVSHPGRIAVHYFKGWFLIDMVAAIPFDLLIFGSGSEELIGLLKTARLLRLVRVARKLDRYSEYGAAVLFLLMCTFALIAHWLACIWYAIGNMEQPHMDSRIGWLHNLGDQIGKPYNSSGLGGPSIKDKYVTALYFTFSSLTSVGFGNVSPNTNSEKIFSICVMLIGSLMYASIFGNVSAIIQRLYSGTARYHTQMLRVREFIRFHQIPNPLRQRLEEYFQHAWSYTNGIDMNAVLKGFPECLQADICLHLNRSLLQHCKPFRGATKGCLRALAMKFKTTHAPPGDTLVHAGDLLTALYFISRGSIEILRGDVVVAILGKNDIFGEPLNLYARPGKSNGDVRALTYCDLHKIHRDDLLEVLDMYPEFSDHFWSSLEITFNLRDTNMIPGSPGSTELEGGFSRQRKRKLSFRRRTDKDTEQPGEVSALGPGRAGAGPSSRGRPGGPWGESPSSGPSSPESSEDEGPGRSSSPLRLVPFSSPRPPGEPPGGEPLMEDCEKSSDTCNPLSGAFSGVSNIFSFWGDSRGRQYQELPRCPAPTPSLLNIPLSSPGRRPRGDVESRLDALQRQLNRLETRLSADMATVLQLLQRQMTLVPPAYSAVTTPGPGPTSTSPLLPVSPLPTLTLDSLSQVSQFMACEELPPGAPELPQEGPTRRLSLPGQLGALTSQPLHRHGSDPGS

Structure (SMILES): CCCCCCCC/C=C\CCCCCCCCOP(O)(O)=S [Rx100, (Z)—O-octadec-9-en-1-yl O,O-dihydrogen phosphorothioate]
- pIC50 [1]: ~3.22
- hERG IC50 relative to anticipated therapeutic concentrations [1]: 100 fold
- Survival Day 10, Rx100 arm (survivors/animals) [2, 3]: 18/32
- Survival Day ≧30, Rx100 arm (survivors/animals) [2, 3]: 9/32
- Survival Advantage Day 10 [2, 3]: 50%
- Survival Advantage Day ≧30 [2, 3]: 28%
- Survival Day 10, Rx100 arm (survivors/animals) [2, 4]: 29/60
- Survival Day ≧30, Rx100 arm (survivors/animals) [2, 4]: 20/60
- Survival Advantage Day 10 [2, 4]: 5%
- Survival Advantage Day ≧30 [2, 4]: 23%
- Survival Day 10, Rx100 arm (survivors/animals) [2, 5]: 41/64
- Survival Day ≧30, Rx100 arm (survivors/animals) [2, 5]: 23/64
- Survival Advantage Day 10 [2, 5]: 23%
- Survival Advantage Day ≧30 [2, 5]: 26%
- Survival Day 10, Rx100 arm (survivors/animals) [2, 6]: 52/105
- Survival Day ≧30, Rx100 arm (survivors/animals) [2, 6]: 42/105
- Survival Advantage Day 10 [2, 6]: 32%
- Survival Advantage Day ≧30 [2, 6]: 25%
- Survival Day 10, Rx100 arm (survivors/animals) [2, 7]: 16/34
- Survival Day ≧30, Rx100 arm (survivors/animals) [2, 7]: 13/34
- Survival Advantage Day 10 [2, 7]: 25%
- Survival Advantage Day ≧30 [2, 7]: 22%
- Survival Day 10, Rx100 arm (survivors/animals) [2, 8]: 21/36
- Survival Day ≧30, Rx100 arm (survivors/animals) [2, 8]: 17/36
- Survival Advantage Day 10 [2, 8]: 47%
- Survival Advantage Day ≧30 [2, 8]: 39%
- Survival Day 10, Rx100 arm (survivors/animals) [2, 9]: 15/35
- Survival Day ≧30, Rx100 arm (survivors/animals) [2, 9]: 12/35
- Survival Advantage Day 10 [2, 9]: 23%
- Survival Advantage Day ≧30 [2, 9]: 14%
- Survival, 0.3 mg/kg ([2]; Females, Day 10): 48.3% (29/60)
- Survival, 3 mg/kg ([2]; Females, Day 10): 64.1% (41/64)
- Survival advantage 0.3 mg/kg ([2]; Females, Day 10): 7.3%
- Survival advantage 3 mg/kg ([2]; Females, Day 10): 23.1%*
- Survival, 0.3 mg/kg ([2]; Females, Day 30): 33.3% (20/60)
- Survival, 3 mg/kg ([2]; Females, Day 30): 35.9% (23/41)
- Survival advantage 0.3 mg/kg ([2]; Females, Day 30): 23.5%*
- Survival advantage 3 mg/kg ([2]; Females, Day 30): 26.1%*
- Survival, 0.3 mg/kg ([2]; Males, Day 10): 38.2% (21/55)
- Survival, 3 mg/kg ([2]; Males, Day 10): 41.4% (24/58)
- Survival advantage 0.3 mg/kg ([2]; Males, Day 10): −2.2%
- Survival advantage 3 mg/kg ([2]; Males, Day 10): 1.0%
- Survival, 0.3 mg/kg ([2]; Males, Day 30): 12.7% (7/55)
- Survival, 3 mg/kg ([2]; Males, Day 30): 17.2% (10/58)
- Survival advantage 0.3 mg/kg ([2]; Males, Day 30): −17.1%
- Survival advantage 3 mg/kg ([2]; Males, Day 30): 12.6%
- increase in survival at Day 10 ([2]; Study 4.1.4, female, 0.3 mg/kg/12 h/6, not statistically significant): 7.3%
- survival advantage at Day 10 ([2]; Study 4.1.4, female, 3 mg/kg/12 h×6 starting 24 hours after PBI, statistically significant): 23.1%
- survival benefit by Day 30 ([2]; Study 4.1.4, female, both 0.3 mg/kg and 3 mg/kg): a benefit was seen
- survival benefit in male animals ([2]; Study 4.1.4, male): no survival benefit
- survival advantage at Day 10 [2, 10]: 50%
- survival advantage through Day 30 [2, 10]: 28%
- efficacy with delayed start of dosing ([2]; Study 4.1.5, female, dosing started ≧48 hours after radiation): Efficacy was not seen
- efficacy and toxicity in male mice ([2]; Study 4.1.5, male, 3 mg/kg q12 h×6): neither efficacy nor toxicity was seen
- Survival advantage ([2]; 15.55 Gy, Day 10): 24.9%*
- Survival advantage ([2]; 15.55 Gy, Day 30): 21.5%*
- Survival advantage ([2]; 15.62 Gy, Day 10): 47.2%*
- Survival advantage ([2]; 15.62 Gy, Day 30): 38.9%*
- Survival advantage ([2]; 15.67 Gy, Day 10): 22.9%*
- Survival advantage ([2]; 15.67 Gy, Day 30): 14.3%
- Survival, Rx100 at 3 mg/kg/12 × 6 ([2]; 15.55 Gy, Day 10): 47.1%
- Survival, Rx100 at 3 mg/kg/12 × 6 ([2]; 15.55 Gy, Day 30): 38.2%
- Survival, Rx100 at 3 mg/kg/12 × 6 ([2]; 15.62 Gy, Day 10): 58.3
- Survival, Rx100 at 3 mg/kg/12 × 6 ([2]; 15.62 Gy, Day 30): 47.2%
- Survival, Rx100 at 3 mg/kg/12 × 6 ([2]; 15.67 Gy, Day 10): 42.9%
- Survival, Rx100 at 3 mg/kg/12 × 6 ([2]; 15.67 Gy, Day 30): 34.3%
- survival advantage at Day 10 and Day 30 ([2]; Study 4.1.8, female, 3 mg/kg q12 h×6 starting at 24 hours after PBI): clinically and statistically significant survival advantage
- Day 10 survival ([2]; females, treatment administered starting at 24 hours after radiation): 56.3%
- survival ([2]; male mice, comparable group): 72%
